Reference: US12708630B2, “Combined therapy of 4′-thio-5-aza-2′-deoxycytidine and Venetoclax” (PINOTBIO, INC., priority 2021, dated 2026)
pIC50: −log10 of the molar value.

Assays:
A427 = assay: drug activity profiling cytotoxicity; assay type: cell-based; details: Homo sapiens, A-427; A427 cell line, Lung (NSCLC); read-out: Aza-T-dCyd IC50
How it was run: (§1)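 Cell lines (200 in total) were exposed to Aza-T-dCyd, and cytotoxicity was profiled to support biomarker discovery.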

BC-1 = assay: drug activity profiling cytotoxicity; assay type: cell-based; details: Homo sapiens, BC1; BC-1 cell line, B-cell lymphoma; read-out: Aza-T-dCyd IC50
How it was run: as §1

BT474 = assay: drug activity profiling cytotoxicity; assay type: cell-based; details: Homo sapiens, BT-474; BT474 cell line, Breast; read-out: Aza-T-dCyd IC50
How it was run: as §1

BxPC-3 = assay: drug activity profiling cytotoxicity; assay type: cell-based; details: Homo sapiens; BxPC-3 cell line, Pancreas; read-out: Aza-T-dCyd IC50
How it was run: as §1

C-33A = assay: drug activity profiling cytotoxicity; assay type: cell-based; details: Homo sapiens; C-33A cell line, Female GU (Cervix); read-out: Aza-T-dCyd IC50
How it was run: as §1

ChaGoK1 = assay: drug activity profiling cytotoxicity; assay type: cell-based; details: Homo sapiens, ChaGo-K-1; ChaGoK1 cell line, Lung (NSCLC); read-out: Aza-T-dCyd IC50
How it was run: as §1

DBTRG-05MG = assay: drug activity profiling cytotoxicity; assay type: cell-based; details: Homo sapiens; DBTRG-05MG cell line, CNS (Glioma); read-out: Aza-T-dCyd IC50
How it was run: as §1

HCT-15 = assay: drug activity profiling cytotoxicity; assay type: cell-based; details: Homo sapiens; HCT-15 cell line, Colon; read-out: Aza-T-dCyd IC50
How it was run: as §1

HepG2 = assay: drug activity profiling cytotoxicity; assay type: cell-based; details: Homo sapiens; HepG2 cell line, Liver; read-out: Aza-T-dCyd IC50
How it was run: as §1

HuCCT1 = assay: drug activity profiling cytotoxicity; assay type: cell-based; details: Homo sapiens, HuCCT-1; HuCCT1 cell line, Liver; read-out: Aza-T-dCyd IC50
How it was run: as §1

JeKo-1 = assay: drug activity profiling cytotoxicity; assay type: cell-based; details: Homo sapiens; JeKo-1 cell line, B-cell lymphoma; read-out: Aza-T-dCyd IC50
How it was run: as §1

Jurkat = assay: drug activity profiling cytotoxicity; assay type: cell-based; details: Homo sapiens; Jurkat cell line, ALL; read-out: Aza-T-dCyd IC50
How it was run: as §1

MV-4-11 = assay: drug activity profiling cytotoxicity; assay type: cell-based; details: Homo sapiens, MV4-11; MV-4-11 cell line, AML; read-out: Aza-T-dCyd IC50
How it was run: as §1

PFSK-1 = assay: drug activity profiling cytotoxicity; assay type: cell-based; details: Homo sapiens; PFSK-1 cell line, CNS (Glioma); read-out: Aza-T-dCyd IC50
How it was run: as §1

SCC-9 = assay: drug activity profiling cytotoxicity; assay type: cell-based; details: Homo sapiens; SCC-9 cell line, Head and Neck; read-out: Aza-T-dCyd IC50
How it was run: as §1

SK-MEL-28 = assay: drug activity profiling cytotoxicity; assay type: cell-based; details: Homo sapiens; SK-MEL-28 cell line, Skin (Melanoma); read-out: Aza-T-dCyd IC50
How it was run: as §1

SK-UT-1 = assay: drug activity profiling cytotoxicity; assay type: cell-based; details: Homo sapiens; SK-UT-1 cell line, Sarcoma; read-out: Aza-T-dCyd IC50
How it was run: as §1

SW900 = assay: drug activity profiling cytotoxicity; assay type: cell-based; details: Homo sapiens; SW900 cell line, Lung (NSCLC); read-out: Aza-T-dCyd IC50
How it was run: as §1

TCCSUP = assay: drug activity profiling cytotoxicity; assay type: cell-based; details: Homo sapiens, TCC-SUP; TCCSUP cell line, Bladder; read-out: Aza-T-dCyd IC50
How it was run: as §1

BL0382PD PDX (bladder) = assay type: in vivo, Mouse; details: NSG mouse, 1 mg/kg, (4) cycles
Source text: The efficacy of Aza-T-dCyd was confirmed by tumor growth curves after administration of Aza-T-dCyd in various solid cancer xenograft models. […]

GLP rat Toxicology study = assay type: in vivo, rats
Method: GLP-Tox studies have been conducted in rats and dogs, with 2 cycles of QD×5d at PO.
In the GLP rat Toxicology study, rats received 2.5, 5, and 10 mg/kg of Aza-T-dCyd (15, 30, and 60 mg/m2) per day.

DNMT1 = DNMT1 (Homo sapiens, UniProt P26358); assay: DNMT1 expression in HL-60 xenograft tumor samples; assay type: in vivo, mice; design: tumor samples were collected on day 11 to determine the expression of DNMT1, DNMT3A, and DNMT3B; from tissue; host or cells: HL-60 xenograft tumour samples (mouse host); details: 2 mg/kg NTX-301 or 0.75 mg/kg Decitabine intraperitoneally, day 11
Chain of DNMT1 (P26358 whole entry): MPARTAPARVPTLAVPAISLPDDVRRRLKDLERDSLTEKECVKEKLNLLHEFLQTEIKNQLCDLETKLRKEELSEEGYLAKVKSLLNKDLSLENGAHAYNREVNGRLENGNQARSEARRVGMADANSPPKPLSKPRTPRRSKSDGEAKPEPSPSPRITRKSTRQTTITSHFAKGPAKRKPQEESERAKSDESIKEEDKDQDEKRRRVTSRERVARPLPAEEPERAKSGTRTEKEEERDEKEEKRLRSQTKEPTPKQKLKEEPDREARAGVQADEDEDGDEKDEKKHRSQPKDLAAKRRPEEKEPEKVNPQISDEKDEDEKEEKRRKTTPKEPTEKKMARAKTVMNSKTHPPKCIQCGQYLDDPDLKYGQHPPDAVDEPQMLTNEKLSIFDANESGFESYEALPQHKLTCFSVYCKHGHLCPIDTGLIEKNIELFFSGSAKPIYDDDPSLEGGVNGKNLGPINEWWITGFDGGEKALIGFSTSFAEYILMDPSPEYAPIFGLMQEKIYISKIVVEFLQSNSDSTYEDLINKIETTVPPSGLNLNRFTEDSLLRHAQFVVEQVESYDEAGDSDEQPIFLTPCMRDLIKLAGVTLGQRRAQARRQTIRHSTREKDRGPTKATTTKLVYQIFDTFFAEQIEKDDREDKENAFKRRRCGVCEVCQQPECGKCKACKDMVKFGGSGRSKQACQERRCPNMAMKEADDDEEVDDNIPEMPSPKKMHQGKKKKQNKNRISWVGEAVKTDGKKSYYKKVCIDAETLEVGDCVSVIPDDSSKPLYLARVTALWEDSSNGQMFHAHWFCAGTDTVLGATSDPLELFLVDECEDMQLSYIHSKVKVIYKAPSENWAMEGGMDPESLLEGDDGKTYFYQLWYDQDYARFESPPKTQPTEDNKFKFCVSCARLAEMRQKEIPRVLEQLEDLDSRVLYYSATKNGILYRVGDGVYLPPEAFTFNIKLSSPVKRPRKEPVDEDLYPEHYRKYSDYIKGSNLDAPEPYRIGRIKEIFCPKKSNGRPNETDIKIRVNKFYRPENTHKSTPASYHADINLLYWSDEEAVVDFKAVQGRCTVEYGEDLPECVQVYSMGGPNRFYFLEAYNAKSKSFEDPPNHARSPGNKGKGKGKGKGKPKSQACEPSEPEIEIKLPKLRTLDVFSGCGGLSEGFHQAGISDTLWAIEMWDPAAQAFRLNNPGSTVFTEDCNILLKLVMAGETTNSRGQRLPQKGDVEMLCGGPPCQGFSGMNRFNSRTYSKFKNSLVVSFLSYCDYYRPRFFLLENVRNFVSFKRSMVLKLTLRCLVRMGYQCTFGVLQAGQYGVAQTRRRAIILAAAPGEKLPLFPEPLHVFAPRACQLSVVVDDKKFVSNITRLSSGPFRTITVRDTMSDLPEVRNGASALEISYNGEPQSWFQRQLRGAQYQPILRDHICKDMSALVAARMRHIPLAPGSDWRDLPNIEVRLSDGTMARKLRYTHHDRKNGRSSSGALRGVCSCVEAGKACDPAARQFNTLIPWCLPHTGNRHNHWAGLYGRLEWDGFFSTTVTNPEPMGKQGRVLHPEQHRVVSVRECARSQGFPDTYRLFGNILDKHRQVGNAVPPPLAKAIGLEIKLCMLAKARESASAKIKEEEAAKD
Method: As the efficacy of DNMT1 inhibitors correlates with their selective profile for targeting DNMT1 and the de novo methyltransferases DNMT3A and DNMT3B, we confirmed the expression of DNMT1, DNMT3A, and DNMT3B in the Aza-T-dCyd and Decitabine treated groups in this xenograft model (FIG. 27).
In the HL-60 xenograft mice model, 2 mg/kg of NTX-301 (Aza-T-dCyd) or 0.75 mg/kg of Decitabine were administered intraperitoneally, and then tumor samples were collected on day 11 to determine the expression of DNMT1, DNMT3A, and DNMT3B. […] On the other hand, the expression levels of DNMT3A and DNMT3B were different in the Aza-T-dCyd and Decitabine treatment groups.

Structure (SMILES): Nc1ncn([C@H]2CC(O)[C@@H](CO)S2)c(=O)n1 (some centres unmarked) [Aza-T-dCyd, 4′-thio-5-aza-2′-deoxycytidine]
- pIC50 (A427): 7.11
- pIC50 (BC-1): 6.47
- pIC50 (BT474): < 5.00
- pIC50 (BxPC-3): 6.16
- pIC50 (C-33A): 6.30
- pIC50 (ChaGoK1): 5.47
- pIC50 (DBTRG-05MG): < 5.00
- pIC50 (HCT-15): 5.99
- pIC50 (HepG2): 6.05
- pIC50 (HuCCT1): 6.98
- pIC50 (JeKo-1): 7.41
- pIC50 (Jurkat): 7.16
- pIC50 (MV-4-11): 6.74
- pIC50 (PFSK-1): 5.12
- pIC50 (SCC-9): 5.74
- pIC50 (SK-MEL-28): 5.60
- pIC50 (SK-UT-1): 6.46
- pIC50 (SW900): 5.70
- pIC50 (TCCSUP): 5.93
- Optimal T/C (%) (test/control) (BL0382PD PDX (bladder)): 23%
- Testicular toxicity, including decreased sperm count (GLP rat Toxicology study; rat): reversible upon discontinuation
- Toxicity target organs (GLP rat Toxicology study; rat, 2.5, 5 and 10 mg/kg per day): bone marrow, thymus, heart, and testes
- DNMT1 expression in tumor samples (DNMT1): significantly reduced
